One may read the Ki as the dissociation constant of the complex between target and ligand, obtained from inhibition or displacement. Low readings indicate tighter binding, high ones weaker binding.

Data on 19 compounds can be found in ChEMBL document CHEMBL3593181, “Design and synthesis of benzothiazole-6-sulfonamides acting as highly potent inhibitors of carbonic anhydrase isoforms I, II, IX and XII” (Bioorg Med Chem, 2015).

Molecules are shown by their SMILES.

This assay deals with Carbonic anhydrase 9 (Homo sapiens, UniProt Q16790). Put plainly: Inhibition of human carbonic anhydrase 9 by stopped flow CO2 hydration method.
For the compound `Nc1cc(=O)[nH]c(SCC(=O)Nc2nc3ccc(S(N)(=O)=O)cc3s2)n1`, the Ki came to 253 nM.
For `NS(=O)(=O)c1ccc2nc(NC(=O)CSc3nc(O)cc(=O)[nH]3)sc2c1` the value was 282 nM.
For `Nc1nc(SCC(=O)Nc2nc3ccc(S(N)(=O)=O)cc3s2)nc2[nH]ncc12` the value was 172 nM; for `Nn1c(Cc2ccccc2)nnc1SCC(=O)Nc1nc2ccc(S(N)(=O)=O)cc2s1`, 244 nM.
With `Cc1ccc(OCc2nnc(SCC(=O)Nc3nc4ccc(S(N)(=O)=O)cc4s3)n2N)cc1Cl` the figure was 67.3 nM.
`Nn1c(COc2ccc(Cl)cc2Cl)nnc1SCC(=O)Nc1nc2ccc(S(N)(=O)=O)cc2s1` gave a Ki of 135 nM.
`NS(=O)(=O)c1ccc(NCC(=O)Nc2nc3ccc(S(N)(=O)=O)cc3s2)cc1` showed a Ki of 4.8 nM.
With `N#Cc1cnn(CC(=O)Nc2nc3ccc(S(N)(=O)=O)cc3s2)c1N` the figure was 276 nM; with `CSc1nn(CC(=O)Nc2nc3ccc(S(N)(=O)=O)cc3s2)c(N)c1C#N`, 295 nM.
In turn, `Nc1ncnc2c1cnn2CC(=O)Nc1nc2ccc(S(N)(=O)=O)cc2s1` registered a Ki of 2.8 nM.
Regarding `CSc1nn(CC(=O)Nc2nc3ccc(S(N)(=O)=O)cc3s2)c2ncnc(N)c12`, the Ki turned out to be 2.7 nM.
Compound `NS(=O)(=O)c1ccc2nc(NC(=O)Cn3ncc4c(=O)[nH]cnc43)sc2c1` registered a Ki of 4.1 nM.
For `CSc1nn(CC(=O)Nc2nc3ccc(S(N)(=O)=O)cc3s2)c2nc[nH]c(=O)c12`, the inhibition constant (Ki) is 4.3 nM.
As for `N#Cc1cnn(CC(=O)Nc2nc3ccc(S(N)(=O)=O)cc3s2)c1NC(=S)Nc1ccccc1`, the affinity corresponds to a Ki of 2.8 nM.
Compound `CSc1nn(CC(=O)Nc2nc3ccc(S(N)(=O)=O)cc3s2)c(NC(=S)Nc2ccccc2)c1C#N` yielded a Ki of 3.9 nM.
In turn, `NS(=O)(=O)c1ccc2nc(NC(=S)NCCNC(=S)Nc3nc4ccc(S(N)(=O)=O)cc4s3)sc2c1` displayed a Ki of 2.1 nM.
For `NS(=O)(=O)c1ccc2nc(NC(=S)N3CCN(C(=S)Nc4nc5ccc(S(N)(=O)=O)cc5s4)CC3)sc2c1` the value was 2.6 nM; for `CS/C(=N\c1nc2ccc(S(N)(=O)=O)cc2s1)NCCN/C(=N/c1nc2ccc(S(N)(=O)=O)cc2s1)SC`, 2.5 nM; for `CS/C(=N\c1nc2ccc(S(N)(=O)=O)cc2s1)N1CCN(/C(=N/c2nc3ccc(S(N)(=O)=O)cc3s2)SC)CC1`, 2.3 nM.
